Experiment [1] deals with subjects with diagnosed hearing loss. Nature of the experiment: Double blind placebo controlled pilot trial of neramexane for treatment of hearing loss (Example 1). The experiment is classed as in vivo, human. Conditions: neramexane mesylate up to 75 mg/day, modified release tablets, 16 weeks, versus placebo. The method, then: A hearing threshold level may be defined as the average of the pure tone hearing threshold levels at testing frequencies of 0.25, 0.5, 1, 2 and 4 kHz.
The primary objective of this study is to investigate the safety and efficacy of neramexane mesylate at daily doses of up to 75 mg in the treatment of hearing loss in comparison to placebo.
In order to be eligible to participate in the study, patients must meet the following criteria: • Male or female subjects aged between 18 and 80 years with diagnosed hearing loss of at least mild degree • Signed written informed consent • Female subjects must be at least 2 years post-menopausal or surgically sterile. Women of childbearing potential have to agree to use at least one effective method of contraception.
Visit 1 (screening): After signing the consent form, the subject undergoes a neurological and otological evaluation. […] Patient eligibility for study is evaluated via a check of inclusion/exclusion criteria.
Visit 2 (baseline): The subjects are asked about adverse events and changes in concomitant medication/disease, which events/changes are documented. Subject is evaluated for study eligibility based on a review of the inclusion/exclusion criteria. […]
Primary Outcome • Change from baseline in hearing threshold level of left/right ear (dB) calculated as average of the pure tone hearing level threshold levels at 0.25, 0.5, 1, 2 and 4 kHz. […]

For experiment [2], the system named is patients suffering from persistent, subjective uni- or bilateral tinnitus. Nature of the experiment: Double-blind, multicenter, randomized, placebo-controlled, parallel-group study in tinnitus patients; pure tone audiogram (Example 2). The experiment is classed as in vivo, human. Particulars: 50 mg-dose group (25 mg immediate release tablets twice daily), after 16 weeks treatment, compared to placebo; FIG. 1.
Protocol: Participants received either neramexane mesylate (e.g. 50 mg, as 25 mg immediate release tablets given twice daily) or placebo twice daily for 16 weeks. Neramexane mesylate was uptitrated in weekly steps of 12.5 or 25 mg during a 4-week uptitration period preceding the fixed-dose 12-week treatment period. Treatment was followed by a four week follow-up period.

We go through 1 molecule from patent US9468610B2, “1-aminocyclohexane derivatives for the treatment of hearing loss” (MERZ PHARMA GmbH & CO. KGaA, priority 2007, dated 2016).

On to `CC1(C)CC(C)(C)CC(C)(N)C1` [neramexane, 1-amino-1,3,3,5,5-pentamethylcyclohexane], for which the “Secondary outcomes: high frequency hearing threshold, individual frequencies, responders, patient-reported outcome, hearing impairment grade” value in experiment [1] was “improvement”. In addition, the “Primary outcomes: change from baseline in hearing threshold level of left/right ear” value in experiment [1] (average of pure tone thresholds at 0.25, 0.5, 1, 2 and 4 kHz) is “improvement”. Besides, the “Individual frequencies (hearing thresholds) on a pure tone audiogram (air conduction), secondary efficacy analysis” value in experiment [2] is listed as “trend for a modest treatment effect compared to placebo”.
